Measurements from the supplement of paper PMC10307832.

What was measured:
Assay in all cases: relative viability (nuclei count vs DMSO), 5 days (fraction); higher = more cells survive
[1] = compound: Cc1ccccc1C(C(=O)NC1CCCCC1)N(C(=O)Cn1ccnc1C)c1cccc(F)c1 [IDH-C35] + CS(=O)(=O)CCNCc1ccc(-c2ccc3ncnc(Nc4ccc(OCc5cccc(F)c5)c(Cl)c4)c3c2)o1 [Lapatinib] (partner 2 µM)
How it was run: (§1)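 Lung cancer cell lines, seeded in 1536-well plates, were treated the following day by pin tool with a single drug or with five library-drug doses (not always all listed) in √10 steps on top of a fixed anchor-drug dose. Cells were fixed and nuclei stained in one step after 5 days, and nuclei were counted. Relative viability is the nuclei count for treated wells divided by that for vehicle wells, reported as medians of duplicate plates.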

[2] = compound: CC1=C(C(=NN1)C)CC2=C(C3=C(S2)N(C(=O)N(C3=O)C)CC(C)C)C(=O)N4C[C@@H](CO4)O + N=C(N)NC(=N)NCCc1ccccc1 [Phenformin] (partner 250 µM)
How it was run: as §1

[3] = compound: Cc1ccccc1C(C(=O)NC1CCCCC1)N(C(=O)Cn1ccnc1C)c1cccc(F)c1 [IDH-C35] + CC(C)C[C@H](NC(=O)[C@H](Cc1ccccc1)NC(=O)c1cnccn1)B(O)O [Bortezomib] (partner 0.002 µM)
How it was run: as §1

[4] = compound: CC1=C(C(=NN1)C)CC2=C(C3=C(S2)N(C(=O)N(C3=O)C)CC(C)C)C(=O)N4C[C@@H](CO4)O + Cc1cc(Nc2cc(N3CCN(C)CC3)nc(Sc3ccc(NC(=O)C4CC4)cc3)n2)n[nH]1 [Tozasertib] (partner 0.1 µM)
How it was run: as §1

Row | Cell Line | relative viability ([1]; first compound 0.08 µM) | relative viability ([1]; first compound 0.253 µM) | relative viability ([1]; first compound 0.8 µM) | relative viability ([1]; first compound 2.53 µM) | relative viability ([1]; first compound 8 µM) | relative viability ([2]; first compound 0.0025 µM) | relative viability ([2]; first compound 0.007906 µM) | relative viability ([2]; first compound 0.025 µM) | relative viability ([2]; first compound 0.07906 µM) | relative viability ([2]; first compound 0.25 µM) | relative viability ([3]; first compound 0.08 µM) | relative viability ([3]; first compound 0.253 µM) | relative viability ([3]; first compound 0.8 µM) | relative viability ([3]; first compound 2.53 µM) | relative viability ([3]; first compound 8 µM) | relative viability ([4]; first compound 0.0025 µM) | relative viability ([4]; first compound 0.007906 µM) | relative viability ([4]; first compound 0.025 µM) | relative viability ([4]; first compound 0.07906 µM) | relative viability ([4]; first compound 0.25 µM)
1 | NCI-H2023 | 0.938 | 0.921 | 0.83 | 0.263 | 0.808 | 0.382 | 0.437 | 0.361 | 0.431 | 0.412 | 0.998 | 1.13 | 1.01 | 0.349 | 0.911 | 0.332 | 0.362 | 0.356 | 0.412 | 0.327
2 | NCI-H2085 | 0.834 | 0.741 | 0.764 | 0.848 | 0.728 | 0.677 | 0.674 | 0.589 | 0.571 | 0.44 | 1.02 | 1.05 | 0.981 | 0.982 | 0.871 | 0.723 | 0.622 | 0.76 | 0.72 | 0.669
3 | NCI-H2087 | 1.04 | 1.06 | 0.867 | 1.07 | 0.834 | 0.45 | 0.474 | 0.395 | 0.471 | 0.447 | 0.846 | 0.959 | 0.805 | 0.863 | 0.654 | 0.275 | 0.233 | 0.281 | 0.219 | 0.33
4 | NCI-H2126 | 0.77 | 0.77 | 0.705 | 0.777 | 0.739 | 0.583 | 0.526 | 0.523 | 0.529 | 0.585 | 1.14 | 1.12 | 1.15 | 1.09 | 1.07 | 0.923 | 0.835 | 0.832 | 0.788 | 0.901
5 | NCI-H2228 | 1.02 | 0.984 | 0.925 | 0.985 | 0.931 | 0.366 | 0.377 | 0.327 | 0.403 | 0.247 | 0.968 | 0.857 | 0.898 | 1.09 | 0.818 | 0.239 | 0.248 | 0.265 | 0.26 | 0.279
6 | NCI-H2347 | 0.99 | 0.969 | 0.914 | 0.902 | 0.804 | 0.455 | 0.429 | 0.295 | 0.275 | 0.264 | 0.912 | 1.02 | 0.929 | 1.08 | 0.878 | 0.584 | 0.591 | 0.54 | 0.522 | 0.727
7 | NCI-H2405 | 1.1 | 1.2 | 1.09 | – | 0.957 | 0.348 | 0.286 | – | 0.277 | 0.268 | 1 | 1 | 0.97 | 0.972 | 0.875 | 0.697 | 0.729 | – | 0.577 | 0.676
8 | NCI-H3122 | 1.06 | 0.951 | 1.04 | 1 | 1.03 | 0.385 | 0.365 | 0.364 | 0.392 | 0.375 | 1.1 | 1.01 | 0.985 | 1.02 | 1.02 | 0.37 | 0.242 | 0.376 | 0.414 | 0.485
9 | PC-3 [JPC-3] | 0.431 | 0.486 | 0.444 | 0.44 | 0.492 | 0.467 | 0.461 | 0.477 | 0.461 | 0.447 | 0.854 | 0.868 | 0.849 | 0.856 | 0.813 | 0.932 | 0.74 | 0.867 | 0.932 | 1.01
10 | PC-14 | 0.361 | 0.304 | 0.316 | 0.363 | 0.423 | 0.548 | 0.585 | 0.317 | 0.586 | 0.74 | 0.983 | 0.897 | 0.792 | 0.834 | 0.767 | 0.593 | 0.549 | 0.525 | 0.614 | 0.598
11 | RERF-LC-KJ | 0.939 | 0.856 | 0.91 | 0.802 | 0.773 | 0.434 | 0.46 | 0.431 | 0.428 | 0.481 | 1.09 | 1.08 | 1.1 | 1.2 | 1.19 | 0.461 | 0.529 | 0.469 | 0.485 | 0.492
12 | SK-LU-1 | 0.918 | 0.856 | 0.871 | 0.976 | 0.82 | 0.338 | 0.234 | 0.191 | 0.202 | 0.223 | 1.34 | 1.33 | 1.25 | – | 1.03 | 0.3 | 0.266 | 0.251 | 0.256 | 0.278
13 | SW 1573 | 1.2 | 1.26 | 1.09 | 1.05 | 1.09 | 0.239 | 0.236 | 0.115 | 0.123 | 0.117 | 1.06 | 1.19 | 0.967 | 1.06 | 1.05 | 0.16 | 0.171 | 0.198 | 0.284 | 0.214
